16 compounds from ChEMBL document CHEMBL1148302, “Discovery of diarylacrylonitriles as a novel series of small molecule sortase A inhibitors” (J Med Chem, 2004) can be followed below.

Some results are limits rather than exact numbers.

The target in the test is T1, Sortase A (Staphylococcus aureus, UniProt Q9S446).
T1 sequence (Q9S446 whole entry): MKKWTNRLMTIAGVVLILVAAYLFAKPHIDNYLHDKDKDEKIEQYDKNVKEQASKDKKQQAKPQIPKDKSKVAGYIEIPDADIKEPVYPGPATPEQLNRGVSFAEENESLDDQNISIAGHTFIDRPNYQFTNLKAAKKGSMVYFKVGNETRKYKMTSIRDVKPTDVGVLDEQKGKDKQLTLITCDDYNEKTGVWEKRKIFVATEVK
Nature of the test: Inhibitory activity towards SrtA (sortase A).
Consider `COc1ccc(CCc2ccc(OC)cc2)cc1`, for which the IC50 is > 1000 µM.
With `COc1ccc(/C=C(/C(=O)O)c2ccc(OC)cc2)cc1`, the IC50 is > 1000 µM.
For `COc1ccc(/C=C/c2ccc(OC)cc2)cc1`, the concentration for half-maximal inhibition (IC50) was > 1000 µM.
Regarding `COC(=O)/C(=C/c1ccc(OC)cc1)c1ccc(OC)cc1`, inhibition was half-maximal at 231 µM (IC50).
For the compound `COc1ccc(/C=C(/C#N)c2ccc(OC)cc2)cc1`, the IC50 came to 187 µM.
`COC(=O)/C(=C\c1ccc(OC)cc1)c1ccc(OC)cc1` returned an IC50 of 909 µM.
Take `COc1ccc(CC(C#N)c2ccc(OC)cc2)cc1` (stereo unspecified): the IC50 is > 1000 µM.
Compound `COc1ccc(/C=C(/C(N)=O)c2ccc(OC)cc2)cc1` yielded an IC50 of 476 µM.
As to `COC(=O)C(Cc1ccc(OC)cc1)c1ccc(OC)cc1` (stereo unspecified), the IC50 is > 1000 µM.
Then `COc1ccc(/C=C\c2ccc(OC)cc2)cc1`, with > 1000 µM; and `COc1ccc(/C(C#N)=C/c2cc(OC)ccc2OC)cc1`, with 9.24 µM; and `COc1ccc(/C(C#N)=C/c2cccc(OC)c2)cc1`, with 17.4 µM.
The value for `COc1ccc(/C(C#N)=C/c2ccc(OC)c(OC)c2)cc1` was 23 µM; that for `COc1ccc(/C(C#N)=C/c2ccccc2OC)cc1` was 36.2 µM; that for `COc1ccc(/C=C(\C#N)c2ccc(OC)cc2)cc1` was 27.9 µM.
The value for `COc1ccc(/C(C#N)=C/c2cc(OC)cc(OC)c2)cc1` was 25.5 µM.
